# Data: ChEMBL document CHEMBL2413037, “Cembrane diterpenoids from the soft coral Sarcophyton trocheliophorum Marenzeller as a new class of PTP1B inhibitors” (Bioorg Med Chem, 2013)
# pIC50: −log10 of the molar value.
# Key:
# HL-60 = assay: Cytotoxicity against human HL60 cells; assay type: cell-based
# A549 = assay: Cytotoxicity against human A549 cells; assay type: cell-based
# [1] = target: T1, Tyrosine-protein phosphatase non-receptor type 1 (Homo sapiens, UniProt P18031); assay: Inhibition of human recombinant PTP1B-mediated pNPP hydrolysis
# T1 sequence (P18031 whole entry): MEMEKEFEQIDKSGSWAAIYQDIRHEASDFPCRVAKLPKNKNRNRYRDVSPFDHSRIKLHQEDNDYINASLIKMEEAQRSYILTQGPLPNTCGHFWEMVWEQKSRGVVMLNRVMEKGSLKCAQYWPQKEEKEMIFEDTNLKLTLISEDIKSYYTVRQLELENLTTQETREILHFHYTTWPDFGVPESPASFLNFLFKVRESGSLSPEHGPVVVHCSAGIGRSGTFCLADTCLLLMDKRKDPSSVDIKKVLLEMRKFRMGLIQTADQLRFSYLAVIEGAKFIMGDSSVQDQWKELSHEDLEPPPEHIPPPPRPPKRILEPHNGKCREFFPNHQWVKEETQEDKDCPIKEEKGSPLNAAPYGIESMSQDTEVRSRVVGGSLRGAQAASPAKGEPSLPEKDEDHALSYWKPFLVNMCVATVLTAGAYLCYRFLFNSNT
SMILES,pIC50 [1],Activity (HL-60),Activity (A549)
COC(=O)/C1=C\CC[C@](C)(O)[C@H](O)CC/C(C(=O)OC)=C\C=C(/C(C)C)CC1,≤ 4.30,Non-toxic,Non-toxic
COC(=O)/C1=C\C=C(\C(C)C)CC/C(C(=O)O)=C/CC[C@]2(C)O[C@H]2CC1,≤ 4.26,Non-toxic,Non-toxic
CC(=O)O[C@@H]1C/C(C)=C/CCC(C)CC(=O)CC2=C[C@@H](OC2=O)[C@@H]1C(C)C (stereo partly drawn),≤ 4.27,Non-toxic,Non-toxic
CC(=O)O[C@@H]1C/C(C)=C/C/C=C(/C)CC(=O)CC2=C[C@@H](OC2=O)[C@@H]1C(C)C,≤ 4.27,Non-toxic,Non-toxic
COC(=O)/C1=C\CC[C@]2(C)O[C@H]2CC/C(C(=O)OC)=C/C=C(/C(C)C)CC1,≤ 4.27,Non-toxic,Non-toxic
CC(C)=C1C/C=C(\C)CC/C=C(\C)CC/C=C(\C)CC1,≤ 4.13,Non-toxic,Non-toxic

# Compounds with a higher pIC50 [1], results first:
pIC50 [1],SMILES,Activity (HL-60),Activity (A549)
4.81,C/C1=C/C=C(/C(C)C)CCC2=CCC[C@](C)(OC2=O)C(=O)CC1,Non-toxic,Non-toxic
4.58,C/C1=C\C=C(\C(C)C)CC/C(C)=C/CC/C(C)=C/CC1,Non-toxic,Non-toxic
5.20,COC(=O)/C1=C/C=C(/C(C)C)CCC2=CCC[C@](C)(OC2=O)C(=O)CC1 [SARCRASSIN E],Non-toxic,Non-toxic
5.23,COC(=O)/C1=C\C=C(\C(C)C)CC/C(C)=C/CC/C(C)=C/CC1,Non-toxic,Non-toxic
4.57,COC(=O)/C1=C\C=C(\C(C)C)CCC2=CCC[C@](C)(OC2=O)C(=O)CC1 [KETOEMBLIDE],Non-toxic,Non-toxic
